Data: US20260285992A1, “GIP ACTIVITY MODULATORS AND ORTHOSTATIC INTOLERANCE” (Antag Therapeutics ApS, priority 2023, published 2026)

Tests used:
[1] = Orthostatic challenges before and after subcutaneous GIP (1-42) or placebo in fasted healthy subjects: heart rate, blood pressure and clinical signs; type: in vivo, human
Protocol: Synthetic human GIP (1-42) (GIP) (PolyPeptide Group, Strasbourg, France) was dissolved in a sodium hydrogen carbonate buffer with 0.5% human serum albumin in NaCl 9 mg/ml to a final concentration of 4 mg/ml. The solution was sterile filtered and dispensed into glass ampoules. On the appropriate study days, the GIP solutions were further diluted in saline (NaCl 9 mg/ml) to 125 μg/ml. Saline (NaCl 9 mg/mL) was used as placebo.
At the beginning of each study day, participants were weighed and received either a placebo injection or a weight-dependent GIP (1-42) dose of 2.7 μg/kg at time 0.
Four healthy, non-medicated participants between 33-40 years old (one male and three females) were included in the study. On each of the two study days, participants arrived after an overnight fast (at least 10 h fasting). To enable continuous heart rate monitoring, three electrodes compatible with the Holter Spiderview recorder were placed over the rib at V5, on the xiphoid muscle at the bottom of the sternum, and at the sternum over the manubrium after the skin was disinfected or shaved and disinfected for the male. Baseline characterization was initiated at timepoint-60 min and lasted for one hour. For baseline characterization, the participants alternated between the supine position and 10 min orthostatic challenges initiated at timepoints −45 min and −20 min. Orthostatic challenges were elicited by actively standing up from the hospital bed. At timepoint 0 min, the participants received a subcutaneous injection of either 2.7 μg/kg GIP or saline in a single-blinded manner. Following the injection, the participants rested in the supine position for one hour when not doing 10 min orthostatic challenges initiated at 15 min and 40 min post-injection. At time points −50 min, −40 min, −30 min, 10 min, 20 min, 45 min, and 55 min systolic- and diastolic blood pressure as well as heart rate were measured using the Omron M2 blood pressure monitor. The two study days were identical except for the injection of either GIP or saline. Fasting prior to administration of GIP mimics the body's natural response to eating, as eating induces GIP secretion. The method employed thus mimics fasting or postprandial conditions with the emphasis on GIP's physiological effects.

[2] = in vivo; cited from earlier work

YAEGTFISDYSIAMDKIHQQDFVNWLLAQKGKKNDWKHNITQ [GIP]
effect on orthostatic tolerance (conclusion) ([1]; by decreasing SBP and DBP and increasing heart rate, in men and women): significantly worsens orthostatic tolerance
subjects who experienced presyncope and had to lay down ([1]; first orthostatic challenge following GIP administration, four subjects, 2.7 μg/kg s.c.): one of the subjects
increase in heart rate over baseline supine levels, during the orthostatic challenge ([1]; four healthy fasted subjects, 2.7 μg/kg GIP (1-42) s.c., orthostatic challenge, Omron M2 monitor, FIG. 1): 36 bpm
increase in heart rate over baseline supine levels, supine position ([1]; four healthy fasted subjects, 2.7 μg/kg GIP (1-42) s.c., supine, Omron M2 monitor, FIG. 1): 17 bpm
change in DBP during the orthostatic challenge compared to placebo levels ([1]; four healthy fasted subjects, 2.7 μg/kg s.c., orthostatic challenge, FIG. 5): −13 mmHg
decrease in SBP during the orthostatic challenges compared to placebo levels ([1]; four healthy fasted subjects, 2.7 μg/kg s.c., orthostatic challenges, FIG. 4): 12 mmHg
decrease in SBP in the supine position compared to placebo levels ([1]; four healthy fasted subjects, 2.7 μg/kg s.c., supine, FIG. 4): 4-5 mmHg
change in DBP in the supine position compared to placebo levels ([1]; four healthy fasted subjects, 2.7 μg/kg s.c., supine, FIG. 5): −10 mmHg
subjects who reported significant dizziness and lightheadedness ([1]; orthostatic challenges post GIP-injection, 2.7 μg/kg s.c.): Three out of four subjects
increase in heart rate compared to baseline supine heart rate during the first orthostatic challenge post injection (Holter monitor) ([1]; two subjects, 2.7 μg/kg s.c., first orthostatic challenge post injection, FIGS. 2 and 3): 49-50 bpm
gradual increase in supine heart rate compared to baseline supine heart rate (Holter monitor) ([1]; two subjects, 2.7 μg/kg s.c., within 15 min, range depends on the subject, FIGS. 2 and 3): 19-28 bpm
half-life [2]: ~ 4 min
